Test results reported in patent publication US20210052633A1, “HYALURONIC ACID SYNTHESIS PROMOTER, METHOD FOR PROMOTING HYALURONIC ACID SYNTHESIS, AND CELL EVALUATION METHOD” (SEIKAGAKU CORPORATION, priority 2018, published 2021).

What was measured:
[1] = system: Human synovial cells derived from a patient with rheumatism (HFLS-RA); assay: Hyaluronic acid synthesis by synovial cells ([3H] glucosamine incorporation, HPLC fractionation by molecular weight); assay type: cell-based
Description: Compound 1 or sodium hyaluronate (HA) (ARTZ Dispo (registered trademark) (manufactured by Seikagaku Corporation)) was mixed in a solution containing a phosphate buffer solution (GIBCO) and an α-MEM (GIBCO) concentrated medium. Further, each reagent was added and mixed in the resulting solution so that the final concentrations were as follows: 10% (v/v) fetal bovine serum (hereinafter FBS (MP Biomedicals)), 10 ng/mL recombinant human IL-1β/IL-1F2 (hereinafter IL-1β (R & D Systems)), 1% (w/v) penicillin/streptomycin (GIBCO), and 370 kBq/mL [^3H] glucosamine (Perkin Elmer). As a result, the following five solutions were obtained as test substances.
Human synovial cells derived from a patient with rheumatism (HFLS-RA, CELL APPLICATIONS, INC.) were subcultured and grown in a 175-cm^2 flask. In the cell culture, Basal medium (containing 10% (v/v) Growth supplement and 1% (w/v) penicillin/streptomycin) (manufactured by Cell Applications, Inc.) was used. Thereafter, the cells were seeded in a 6-well plate at 3.0×10^5 cells/2 mL/well and cultured for about 24 hours until confluence was reached. In the cell culture, α-MEM medium (containing 10% (v/v) FBS and 1% (w/v) penicillin/streptomycin) was used. After removing the culture supernatant, 2 mL of the test substance was added to the cells, and the cells were further cultured for 48 hours. The culture was performed at 37° C. in a CO2 incubator (5% (v/v) CO2). After completion of the culture, the culture supernatant was collected and cryopreserved in an ultra-low temperature freezer until measurement.
Since glucosamine is a constituent monosaccharide of hyaluronic acid, in hyaluronic acid newly synthesized in the cells after addition of the test substance, [^3H] glucosamine is incorporated. Therefore, hyaluronic acid in the collected culture supernatant was separated according to molecular weight using HPLC, and fractions were collected every 0.5 minutes using a fraction collector. To each of the collected fractions, 0.5 mL of a scintillation fluid was added and mixed. Thereafter, the radioactivity (dpm, disintegrations per minute) of each fraction was measured using a scintillation counter, and the radioactivity (the amount of [^3H] glucosamine incorporated into newly produced hyaluronic acid) was evaluated. The HPLC conditions are as follows.
Mobile phase: a solution of 5 mmol/L phosphate buffer solution (pH 6.0) with 0.82% (w/v) NaCl:acetonitrile=2:1 (v:v)
Column: OH pak SB-805 HQ column (Shodex (registered trademark)), column temperature: 35° C.
The hyaluronic acid standard solution was separated by HPLC, and UV absorption at a wavelength of 210 nm was measured. Fraction No. in which the peak top of the hyaluronic acid standard solution of each molecular weight is collected was calculated. As the hyaluronic acid standard solutions, Select-HATM 500 k (average molecular weight: 528,000), Select-HATM 1,000 k (average molecular weight: 1,076,000), and Select-HATM 2,500 k (average molecular weight: 2,420,000) were used.
The same procedure as in Example 1 was performed. Note that the culture supernatant was collected at respective time points (8, 24, 36, 48, and 72 hours) after adding the test substance to the cells.
A control solution, a 0.01% (w/v %) compound 1 solution, and a 0.01% (w/v %) sodium hyaluronate (HA) solution were prepared in the same manner as in Example 1. DF-Na (0.014 μg/mL, 0.14 μg/mL, 1.4 μg/mL, and 14 μg/mL) solutions were prepared by dissolving DF-Na in the control solution. Further, a HA+DF-Na mixed liquid was obtained by dissolving DF-Na (1.4 μg/mL) in the 0.01% (w/v %) sodium hyaluronate (HA) solution.
(§1) The same procedure as in Example 1 was performed.
The same procedure as in Example 1 was performed. Note that a column (OH pak SB-807 HQ column (Shodex (registered trademark)) having higher separability on the high molecular weight side than the HPLC column (OH pak SB-805 HQ column (Shodex (registered trademark)) was used.

[2] = system: Human synovial cells derived from a patient with rheumatism (HFLS-RA); assay: Hyaluronidase treatment of culture supernatant, then fractionation and radioactivity measurement; assay type: cell-based; conditions: Example 2, 0.01% (w/v)
Description: It was verified that the substance whose synthesis was promoted by the action of the compound 1 is hyaluronic acid by confirming the presence or absence of degradation by a hyaluronic acid-degrading enzyme (hyaluronidase).
as §1
The culture supernatant (90 μL) collected after adding the 0.01% HA solution and 10 μL of 100 TRU/mL hyaluronidase (or water for injection) were mixed and reacted overnight at 37° C., thereby performing a hyaluronidase treatment. The culture supernatant (90 μL) collected after adding the 0.01% compound 1 solution and 30 μL of 100 TRU/mL hyaluronidase (or water for injection) were mixed and reacted at 60° C. for 3 hours, thereby performing a hyaluronidase treatment. The hyaluronidase (derived from an actinomycetes) was purchased from Seikagaku Biobusiness Corporation.

## Aminoethanol-diclofenac-introduced sodium hyaluronate [compound 1]
[1]; Example 1, HFLS-RA, 0.1% and 0.01% (w/v), 48 hours
  action of promoting the synthesis of high molecular weight hyaluronic acid: has an action of promoting the synthesis of high molecular weight hyaluronic acid
[1]; Example 1, HFLS-RA, IL-1β, 0.1% and 0.01% (w/v) test substance, 48 hours, SB-805 HQ column, control peak in the vicinity of 500,000
  molecular weight peak of hyaluronic acid produced: high molecular weight exceeding the molecular weight of hyaluronic acid produced in the HA group
[1]; Example 3, HFLS-RA, 0.1% (w/v), 8, 24, 36, 48 and 72 hours, control in the vicinity of 500,000
  molecular weight peak of hyaluronic acid produced: higher molecular weight than that in the HA groups
[1]; Example 3, HFLS-RA, 0.1% (w/v), 8 to 72 hours
  content of hyaluronic acid over time: increases over time
[1]; Example 4, HFLS-RA, 0.01% (w/v), 48 hours, control in the vicinity of 500,000
  molecular weight peak of hyaluronic acid produced: more prominent than in the HA group
[1]; Example 5, synovial cells from three patients with rheumatism, 0.01% (w/v), 48 hours, SB-807 HQ column
  molecular weight peak of hyaluronic acid produced: ~2,400,000
[2]; hyaluronidase (+)
  peak of the high molecular weight radioactive substance after hyaluronidase treatment: disappearance of the peak
[2]; hyaluronidase (−)
  production and molecular weight of high molecular weight radioactive substance: higher molecular weight than the radioactive substance in the 0.01% HA (hyaluronidase (−)) group
